Results on eleven molecules are retold here after US9096593B2, “Compounds and methods for kinase modulation, and indications therefor” (Plexxikon Inc., priority 2009, dated 2015).

The structures appear in SMILES notation. A value given as a limit tells only on which side of the number the result lay.

The first assay has as its system MV-4-11 cells. Put plainly: MV-4-11 cell proliferation assay (ATPlite). The settings on record: 3 days, read-out: Cell based (IC50 μM) MV-4-11 (Flt-3). The protocol:
Compounds are assessed in a variety of cell based assays. For example BCR-FMS/BaF3, BCR-KIT/BaF3, M-NFS-60, M-07e, and BAC1.2F5 cell proliferation assays are used to assess inhibitory activity of Fms or Kit and MV-4-11 cell proliferation assay is used to assess inhibitory activity in Flt-3. Reagent and assay conditions are as follows: • BCR-FMS/BaF3 and BCR-KIT/BaF3 cells: • Maintained in RPMI containing 10% FBS, 1% PenStrep, 1% NEAA, and 1% L-Glutamine, supplemented with 1 mg/mL G418 and 5% WEHI-CM (or recombinant murine IL-3). • Confluent cells are split 1:50 to 1:100 every 3-4 days. • M-NFS-60 cells (ATCC #CRL-1838): • Maintained in RPMI containing 10% FBS, 1% Hepes, 1% NaPyruvate, and 0.45% Glucose, supplemented with 62 ng/mL murine M-CSF. • Confluent cells are split 1:20 every 3-4 days. • M-07e cells (DSMZ #ACC 104): • Maintained in IMDM containing 10% FBS, supplemented with either 200 ng/mL human SCF or […] SCF (R&D Systems 255-SC). • Confluent cells are split 1:5 to 1:10 every 3-4 days. • BAC1.2F5 cells: • Maintained in Alpha-MEM containing 10% Newborn Calf Serum (Invitrogen #26010-074) supplemented with 36 ng/mL murine M-CSF. • Confluent cells are split 1:4 every 3-4 days. • MV-4-11 cells: • Maintained in Iscove's Modified Dulbecco's Medium containing 10% FBS. • Confluent cells are split 1:4 every 3-4 days. On day 1, cells are counted, then centrifuged in a conical tube for 5 minutes at 1000 rpm. The supernatant is removed and cells are re-suspended as follows: • BCR-FMS/BaF3 and BCR-KIT/BaF3: resuspend in growth media+1 mg/mL G418 (without WEHI/IL-3) to 2×10^5 cells/mL. • M-NFS-60: resuspend in growth media +62 ng/mL murine M-CSF to 5×10^5 cells/mL. • M-07e: resuspend in growth media +200 ng/mL human SCF to 5×10^5 cells/mL. • BAC1.2F5: resuspend in growth media +36 ng/mL murine M-CSF to 1.4×10^5 cells/mL. • MV-4-11: resuspend in growth media +10% FBS to 5×10^5 cells/mL. The cells are plated (50 μL) in each well of a 96-well dish (Corning 3610) and incubated at 37° C. in 5% CO2 overnight, cells plated to a final concentration of cells as follows: • BCR-FMS/BaF3 and BCR-KIT/BaF3: 10,000 cells per well. • M-NFS-60: 25,000 cells per well. • M-07e: 25,000 cells per well. • BAC1.2F5: 7,000 cells per well. • MV-4-11: 25,000 cells per well. On day 2, compound at a maximum concentration of 5 mM is serially diluted 1:3 for a total of 8 point titration with DMSO as a control. A 1 μL aliquot of each dilution point is added to 249 μL growth media and 50 μL is added to a well containing cells, providing 10 μM compound for the maximum concentration point. The cells are incubated for 3 days at 37° C. in 5% CO2. On day 5, ATPlite 1 step Luminescence Assay System (Perkin Elmer #6016739) is brought to room temperature along with the cell cultures. ATPlite is added to each well as follows: • BCR-FMS/BaF3 and BCR-KIT/BaF3: 25 μL per well. • M-NFS-60: 25 μL per well. • M-07c: 40 μL per well. • BAC1.2F5: 50 μL per well. • MV-4-11: 40 μL per well. The cells are incubated at room temperature for 10 minutes, then luminescence is read on Safire reader. The measured luminescence correlates directly with cell number, such that the reading as a function of compound concentration is used to determine the IC50 value.
The term IC50 denotes the concentration that inhibits the measured activity by half. Regarding `Clc1cnc2[nH]cc(Cc3ccc(NCc4ccc(Cl)nc4)nc3)c2c1` [Compound P-2003], the IC50 is greater than 0.1 µM.

The assay is the same for the next values; noted with them: Homo sapiens, MV4-11, 72 h, 3 days, read-out: Cell based (IC50 μM) MV-4-11 (Flt-3).
For `COc1ccc(CNc2ccc(Cc3c[nH]c4ncc(C)cc34)c(F)n2)cn1` [Compound P-2029, [6-Fluoro-5-(5-methyl-1H-pyrrolo[2,3-b]pyridin-3-ylmethyl)-pyridin-2-yl]-(6-methoxy-pyridin-3-ylmethyl)-amine], the IC50 was less than 0.1 µM.

On to `COc1cnc2[nH]cc(Cc3ccc(NCc4ccc(OC)nc4)nc3F)c2c1` [Compound P-2030, [6-Fluoro-5-(5-methoxy-1H-pyrrolo[2,3-b]pyridin-3-ylmethyl)-pyridin-2-yl]-(6-methoxy-pyridin-3-ylmethyl)-amine], for which the IC50 is less than 0.1 µM.

Turning to `Cc1cnc2[nH]cc(Cc3ccc(NCc4ccc(C(F)(F)F)nc4)nc3F)c2c1` [Compound P-2031, [6-Fluoro-5-(5-methyl-1H-pyrrolo[2,3-b]pyridin-3-ylmethyl)-pyridin-2-yl]-(6-trifluoromethyl-pyridin-3-ylmethyl)-amine], the IC50 was less than 0.1 µM. Take `COc1cnc2[nH]cc(Cc3ccc(NCc4ccc(Cl)cc4)nc3F)c2c1` [Compound P-2032, (4-Chloro-benzyl)-[6-fluoro-5-(5-methoxy-1H-pyrrolo[2,3-b]pyridin-3-ylmethyl)-pyridin-2-yl]-amine]: the IC50 was less than 0.1 µM. Same read-out and setting: the result for `COc1cnc2[nH]cc(Cc3ccc(NCc4ccccc4Cl)nc3F)c2c1` [Compound P-2034, (2-chloro-benzyl)-[6-fluoro-5-(5-methoxy-1H-pyrrolo[2,3-b]pyridin-3-ylmethyl)-pyridin-2-yl]-amine] reads greater than 0.1 µM; that for `COc1ccnc2[nH]cc(Cc3ccc(NCc4ccc(Cl)cc4)nc3F)c12` [Compound P-2037, (4-Chloro-benzyl)-[6-fluoro-5-(4-methoxy-1H-pyrrolo[2,3-b]pyridin-3-ylmethyl)-pyridin-2-yl]-amine], greater than 0.1 µM. Same read-out and setting: next, `COc1ccc(CNc2ncc(Cc3c[nH]c4ncc(Cl)cc34)cn2)cn1` [Compound P-2038, [5-(5-Chloro-1H-pyrrolo[2,3-b]pyridin-3-ylmethyl)-pyrimidin-2-yl]-(6-methoxy-pyridin-3-ylmethyl)-amine]: less than 0.1 µM; `Fc1nc(NCc2ccc(Cl)cn2)ccc1Cc1c[nH]c2ncccc12` [Compound P-2044, (5-Chloro-pyridin-2-ylmethyl)-[6-fluoro-5-(1H-pyrrolo[2,3-b]pyridin-3-ylmethyl)-pyridin-2-yl]-amine]: less than 0.1 µM; `COc1ccc(CNc2ncc(Cc3c[nH]c4ncc(C)cc34)cn2)cn1` [Compound P-2057, (6-Methoxy-pyridin-3-ylmethyl)-[5-(5-methyl-1H-pyrrolo[2,3-b]pyridin-3-ylmethyl)-pyrimidin-2-yl]-amine]: less than 0.1 µM. Consider `COc1ncc(CNc2ccc(Cc3c[nH]c4ncc(Cl)cc34)c(F)n2)cc1F` [Compound P-2165, [5-(5-Chloro-1H-pyrrolo[2,3-b]pyridin-3-ylmethyl)-6-fluoro-pyridin-2-yl]-(5-fluoro-6-methoxy-pyridin-3-ylmethyl)-amine], for which the IC50 was greater than 0.1 µM.
